# Source: the supplement of paper PMC10307832
# Key:
# Test in all cases: relative viability (nuclei count vs DMSO), 5 days (fraction); higher = more cells survive
# LU99A = test system: LU99A
# Method in brief: (§1)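 Five library-drug doses in √10 steps were combined with a fixed anchor-drug dose, or a single drug was given alone, by pin tool to lung cancer cell lines in 1536-well plates the day after seeding. Nuclei were stained and counted after 5 days. Relative viability is the nuclei count in treated wells over that in vehicle wells, taken as the median of duplicate plates.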
# NCI-H1792 = test system: NCI-H1792
# Method in brief: as §1
# NCI-H1651 = test system: NCI-H1651
# Method in brief: as §1
# HCC-44 = test system: HCC-44
# Method in brief: as §1
# NCI-H1666 = test system: NCI-H1666
# Method in brief: as §1
# NCI-H1755 = test system: NCI-H1755
# Method in brief: as §1
# NCI-H1650 = test system: NCI-H1650
# Method in brief: as §1
# BEN = test system: BEN
# Method in brief: as §1
# NCI-H2087 = test system: NCI-H2087
# Method in brief: as §1
# PC-14 = test system: PC-14
# Method in brief: as §1
# NCI-H1993 = test system: NCI-H1993
# Method in brief: as §1
# COR-L23 = test system: COR-L23
# Method in brief: as §1
# NCI-H520 = test system: NCI-H520
# Method in brief: as §1
# NCI-H1355 = test system: NCI-H1355
# Method in brief: as §1
# NCI-H1437 = test system: NCI-H1437
# Method in brief: as §1
# NCI-H460 = test system: NCI-H460
# Method in brief: as §1
# LXF-289 = test system: LXF-289
# Method in brief: as §1
# NCI-H1563 = test system: NCI-H1563
# Method in brief: as §1
# CAL-12T = test system: CAL-12T
# Method in brief: as §1
# NCI-H2085 = test system: NCI-H2085
# Method in brief: as §1
smiles,measurement,setting,value
Cc1cn(-c2cc(NC(=O)c3ccc(C)c(Nc4nccc(-c5cccnc5)n4)c3)cc(C(F)(F)F)c2)cn1 [Nilotinib] + CC(C)C[C@H](NC(=O)[C@H](Cc1ccccc1)NC(=O)c1cnccn1)B(O)O [Bortezomib] (partner 0.002 µM),relative viability,LU99A; first compound 0.001 µM,0.891
same,relative viability,LU99A; first compound 0.003162 µM,1.1
same,relative viability,LU99A; first compound 0.01 µM,1.39
same,relative viability,LU99A; first compound 0.03162 µM,1.19
same,relative viability,LU99A; first compound 0.1 µM,0.371
same,relative viability,NCI-H1792; first compound 0.001 µM,0.94
same,relative viability,NCI-H1792; first compound 0.01 µM,1.2
same,relative viability,NCI-H1792; first compound 0.1 µM,1.23
same,relative viability,NCI-H1651; first compound 0.001 µM,0.917
same,relative viability,NCI-H1651; first compound 0.003162 µM,1.05
same,relative viability,NCI-H1651; first compound 0.01 µM,1.07
same,relative viability,NCI-H1651; first compound 0.03162 µM,0.956
same,relative viability,NCI-H1651; first compound 0.1 µM,0.653
same,relative viability,HCC-44; first compound 0.001 µM,0.885
same,relative viability,HCC-44; first compound 0.003162 µM,0.968
same,relative viability,HCC-44; first compound 0.01 µM,0.853
same,relative viability,HCC-44; first compound 0.03162 µM,0.871
same,relative viability,HCC-44; first compound 0.1 µM,0.873
same,relative viability,NCI-H1666; first compound 0.001 µM,0.774
same,relative viability,NCI-H1666; first compound 0.01 µM,0.649
same,relative viability,NCI-H1666; first compound 0.03162 µM,0.985
same,relative viability,NCI-H1666; first compound 0.1 µM,0.829
same,relative viability,NCI-H1755; first compound 0.001 µM,1
same,relative viability,NCI-H1755; first compound 0.003162 µM,1.16
same,relative viability,NCI-H1755; first compound 0.01 µM,1.15
same,relative viability,NCI-H1755; first compound 0.03162 µM,0.81
same,relative viability,NCI-H1755; first compound 0.1 µM,0.929
same,relative viability,NCI-H1650; first compound 0.001 µM,0.2
same,relative viability,NCI-H1650; first compound 0.003162 µM,0.195
same,relative viability,NCI-H1650; first compound 0.01 µM,0.18
same,relative viability,NCI-H1650; first compound 0.03162 µM,0.196
same,relative viability,NCI-H1650; first compound 0.1 µM,0.197
same,relative viability,BEN; first compound 0.001 µM,0.782
same,relative viability,BEN; first compound 0.003162 µM,0.843
same,relative viability,BEN; first compound 0.01 µM,0.788
same,relative viability,BEN; first compound 0.1 µM,0.721
same,relative viability,NCI-H2087; first compound 0.001 µM,0.693
same,relative viability,NCI-H2087; first compound 0.003162 µM,1.03
same,relative viability,NCI-H2087; first compound 0.01 µM,0.762
same,relative viability,NCI-H2087; first compound 0.03162 µM,0.68
same,relative viability,NCI-H2087; first compound 0.1 µM,0.296
same,relative viability,PC-14; first compound 0.003162 µM,1.05
same,relative viability,PC-14; first compound 0.01 µM,1.02
same,relative viability,PC-14; first compound 0.03162 µM,0.797
same,relative viability,PC-14; first compound 0.1 µM,0.867
same,relative viability,NCI-H1993; first compound 0.001 µM,1.11
same,relative viability,NCI-H1993; first compound 0.003162 µM,0.878
same,relative viability,NCI-H1993; first compound 0.01 µM,1.06
same,relative viability,NCI-H1993; first compound 0.03162 µM,0.896
same,relative viability,NCI-H1993; first compound 0.1 µM,0.953
same,relative viability,COR-L23; first compound 0.001 µM,0.726
same,relative viability,COR-L23; first compound 0.003162 µM,1.24
same,relative viability,COR-L23; first compound 0.01 µM,1.22
same,relative viability,COR-L23; first compound 0.03162 µM,0.858
same,relative viability,COR-L23; first compound 0.1 µM,0.907
same,relative viability,NCI-H520; first compound 0.001 µM,0.591
same,relative viability,NCI-H520; first compound 0.01 µM,0.776
same,relative viability,NCI-H520; first compound 0.03162 µM,0.526
same,relative viability,NCI-H520; first compound 0.1 µM,0.34
same,relative viability,NCI-H1355; first compound 0.001 µM,1.09
same,relative viability,NCI-H1355; first compound 0.003162 µM,1.52
same,relative viability,NCI-H1355; first compound 0.01 µM,1.28
same,relative viability,NCI-H1355; first compound 0.03162 µM,1.15
same,relative viability,NCI-H1355; first compound 0.1 µM,0.639
same,relative viability,NCI-H1437; first compound 0.001 µM,0.485
same,relative viability,NCI-H1437; first compound 0.003162 µM,0.505
same,relative viability,NCI-H1437; first compound 0.01 µM,0.651
same,relative viability,NCI-H1437; first compound 0.03162 µM,0.367
same,relative viability,NCI-H1437; first compound 0.1 µM,0.161
same,relative viability,NCI-H460; first compound 0.001 µM,0.689
same,relative viability,NCI-H460; first compound 0.03162 µM,0.627
same,relative viability,NCI-H460; first compound 0.1 µM,0.866
same,relative viability,LXF-289; first compound 0.001 µM,0.977
same,relative viability,LXF-289; first compound 0.003162 µM,1.22
same,relative viability,LXF-289; first compound 0.01 µM,1.11
same,relative viability,LXF-289; first compound 0.03162 µM,0.977
same,relative viability,LXF-289; first compound 0.1 µM,0.692
same,relative viability,NCI-H1563; first compound 0.001 µM,0.878
same,relative viability,NCI-H1563; first compound 0.003162 µM,0.84
same,relative viability,NCI-H1563; first compound 0.01 µM,0.79
same,relative viability,NCI-H1563; first compound 0.03162 µM,0.704
same,relative viability,NCI-H1563; first compound 0.1 µM,0.623
same,relative viability,CAL-12T; first compound 0.001 µM,0.968
same,relative viability,CAL-12T; first compound 0.01 µM,0.919
same,relative viability,CAL-12T; first compound 0.03162 µM,0.807
same,relative viability,CAL-12T; first compound 0.1 µM,1.19
same,relative viability,NCI-H2085; first compound 0.001 µM,1.11
same,relative viability,NCI-H2085; first compound 0.003162 µM,1.11
same,relative viability,NCI-H2085; first compound 0.01 µM,1.27
same,relative viability,NCI-H2085; first compound 0.03162 µM,0.816
same,relative viability,NCI-H2085; first compound 0.1 µM,0.725
CN1CCN(CCOc2cc(OC3CCOCC3)c3c(Nc4c(Cl)ccc5c4OCO5)ncnc3c2)CC1 [Saracatinib] + CC(C)C[C@H](NC(=O)[C@H](Cc1ccccc1)NC(=O)c1cnccn1)B(O)O [Bortezomib] (partner 0.002 µM),relative viability,LU99A; first compound 0.02 µM,1.1
same,relative viability,LU99A; first compound 0.2 µM,1
same,relative viability,LU99A; first compound 0.6325 µM,1.13
same,relative viability,LU99A; first compound 2 µM,0.942
same,relative viability,NCI-H1792; first compound 0.02 µM,0.956
same,relative viability,NCI-H1792; first compound 0.2 µM,0.344
same,relative viability,NCI-H1792; first compound 0.6325 µM,1.06
same,relative viability,NCI-H1792; first compound 2 µM,0.914
same,relative viability,NCI-H1651; first compound 0.02 µM,0.962
same,relative viability,NCI-H1651; first compound 0.2 µM,0.775
same,relative viability,NCI-H1651; first compound 0.6325 µM,1
same,relative viability,NCI-H1651; first compound 2 µM,0.844
same,relative viability,HCC-44; first compound 0.02 µM,0.917
same,relative viability,HCC-44; first compound 0.2 µM,0.78
same,relative viability,HCC-44; first compound 0.6325 µM,0.93
same,relative viability,HCC-44; first compound 2 µM,1.02
same,relative viability,NCI-H1666; first compound 0.02 µM,0.898
same,relative viability,NCI-H1666; first compound 0.2 µM,0.978
same,relative viability,NCI-H1666; first compound 0.6325 µM,1.07
same,relative viability,NCI-H1666; first compound 2 µM,1.06
same,relative viability,NCI-H1755; first compound 0.02 µM,1.02
same,relative viability,NCI-H1755; first compound 0.2 µM,0.792
same,relative viability,NCI-H1755; first compound 0.6325 µM,1.08
same,relative viability,NCI-H1755; first compound 2 µM,0.83
same,relative viability,NCI-H1650; first compound 0.02 µM,0.179
same,relative viability,NCI-H1650; first compound 0.2 µM,0.192
same,relative viability,NCI-H1650; first compound 0.6325 µM,0.24
same,relative viability,NCI-H1650; first compound 2 µM,0.206
same,relative viability,BEN; first compound 0.02 µM,0.928
same,relative viability,BEN; first compound 0.2 µM,0.695
same,relative viability,BEN; first compound 0.6325 µM,0.889
same,relative viability,BEN; first compound 2 µM,0.573
same,relative viability,NCI-H2087; first compound 0.02 µM,0.87
same,relative viability,NCI-H2087; first compound 0.2 µM,0.608
same,relative viability,NCI-H2087; first compound 0.6325 µM,0.856
same,relative viability,NCI-H2087; first compound 2 µM,0.711
same,relative viability,PC-14; first compound 0.02 µM,0.941
same,relative viability,PC-14; first compound 0.2 µM,0.685
same,relative viability,PC-14; first compound 0.6325 µM,0.261
same,relative viability,PC-14; first compound 2 µM,0.169
same,relative viability,NCI-H1993; first compound 0.02 µM,1.18
same,relative viability,NCI-H1993; first compound 0.2 µM,0.559
same,relative viability,NCI-H1993; first compound 2 µM,0.67
same,relative viability,COR-L23; first compound 0.02 µM,0.98
same,relative viability,COR-L23; first compound 0.2 µM,0.723
same,relative viability,COR-L23; first compound 0.6325 µM,1.09
same,relative viability,COR-L23; first compound 2 µM,1.05
same,relative viability,NCI-H520; first compound 0.02 µM,0.663
same,relative viability,NCI-H520; first compound 0.2 µM,0.431
same,relative viability,NCI-H520; first compound 0.6325 µM,0.289
same,relative viability,NCI-H520; first compound 2 µM,0.174
same,relative viability,NCI-H1355; first compound 0.02 µM,1.18
same,relative viability,NCI-H1355; first compound 0.2 µM,1.15
same,relative viability,NCI-H1355; first compound 0.6325 µM,1.44
same,relative viability,NCI-H1355; first compound 2 µM,1.17
same,relative viability,NCI-H1437; first compound 0.02 µM,0.502
same,relative viability,NCI-H1437; first compound 0.2 µM,0.505
same,relative viability,NCI-H1437; first compound 0.6325 µM,0.437
same,relative viability,NCI-H1437; first compound 2 µM,0.453
same,relative viability,NCI-H460; first compound 0.02 µM,1.05
same,relative viability,NCI-H460; first compound 0.2 µM,0.51
same,relative viability,NCI-H460; first compound 0.6325 µM,1.12
same,relative viability,NCI-H460; first compound 2 µM,1.03
same,relative viability,LXF-289; first compound 0.02 µM,0.937
same,relative viability,LXF-289; first compound 0.2 µM,0.959
same,relative viability,LXF-289; first compound 0.6325 µM,0.966
same,relative viability,LXF-289; first compound 2 µM,0.987
same,relative viability,NCI-H1563; first compound 0.02 µM,0.857
same,relative viability,NCI-H1563; first compound 0.2 µM,0.713
same,relative viability,NCI-H1563; first compound 0.6325 µM,0.707
same,relative viability,NCI-H1563; first compound 2 µM,0.712
same,relative viability,CAL-12T; first compound 0.02 µM,0.944
same,relative viability,CAL-12T; first compound 0.2 µM,0.949
same,relative viability,CAL-12T; first compound 0.6325 µM,1.24
same,relative viability,CAL-12T; first compound 2 µM,0.639
same,relative viability,NCI-H2085; first compound 0.02 µM,1.07
same,relative viability,NCI-H2085; first compound 0.2 µM,0.91
same,relative viability,NCI-H2085; first compound 0.6325 µM,1.13
same,relative viability,NCI-H2085; first compound 2 µM,1.11
